In patent US20220395472A1 (Dermavant Sciences GmbH, priority 2021, published 2022):

Tested on: adults with plaque psoriasis
Test: Long-term open-label extension study (PSOARING 3): Physician Global Assessment (PGA), treatment episodes, treatment success, remittive effect
Format: in vivo, human
Protocol: This extension study consisted of up to 40 weeks of treatment and a 4 week, safety follow up period.
At the completion of the Week 12 visit of the DB, pivotal Phase 3 study, eligibility of the subjects opting to enroll in this extension study was confirmed. Study visits during the treatment period for all subjects occurred every 4 weeks (±3 days). A phone call was performed at Week 2 (Day 15). Unscheduled visits may have occurred, as needed. Subjects who withdrew from this study before Week 40 returned to the study center for an Early Termination visit. The total duration of this extension study participation was 44 weeks. Subjects in this study were treated as follows based on their PGA score from the Week 12 visit in the DB, pivotal Phase 3 study (Study DMVT 505 3001 or Study DMVT 505 3002).
The PGA was used to assess the primary efficacy endpoint in this study. The PGA is a clinical tool for assessing the current state/severity of a subject's psoriasis at a given time point. It is a static, 5 point, morphological assessment of overall disease severity, as determined by the Investigator, using the clinical characteristics of erythema, scaling, and plaque thickness/elevation as guidelines; higher PGA scores represent more severe disease (0=clear, 1=almost clear, 2=mild, 3=moderate, and 4=severe). The BSA affected was not considered in scoring of the PGA. Variations of the PGA are frequently used in clinical studies because it is a simple assessment, similar to those used in clinical practice. The PGA was performed first, prior to the % BSA, PASI, and LTS assessments.
Time to event parameters, such as the time from treatment success to subsequent worsening (PGA≥2) or duration of treatment episode, were summarized by the Kaplan Meier product limit method using OC.

[1] = Baseline PGA = 3, Tapinarof (Pivotal) group
[2] = Baseline PGA = 3, Vehicle (Pivotal) group
[3] = Baseline PGA = 4, Tapinarof (Pivotal) group
[4] = Baseline PGA = 4, Vehicle (Pivotal) group

CC(C)c1c(O)cc(/C=C/c2ccccc2)cc1O [Tapinarof, 3,5-Dihydroxy-4-isopropyl-trans-stilbene]
Total Duration of Treatment Success, Mean (SD) [1]: 67.3 (54.20) days | Total Duration of Treatment Success, Median [1]: 56.5 days | Average Duration of Episodes, Mean (SD) [2]: 174.0 (94.06) days | Average Duration of Episodes, Median [2]: 195.0 days | Average Duration of Treatment Success, Mean (SD) [2]: 67.1 (57.99) days | Average Duration of Treatment Success, Median [2]: 51.0 days | Duration of 1st Episode, Mean (SD) [2]: 177.1 (92.70) days | Duration of 1st Episode, Median [2]: 195.5 days | Duration of 1st Success, Mean (SD) [2]: 70.3 (58.38) days | Duration of 1st Success, Median [2]: 56.0 days | Duration of 2nd Episode, Mean (SD) [2]: 56.4 (37.29) days | Duration of 2nd Episode, Median [2]: 55.5 days | Duration of 2nd Success, Mean (SD) [2]: 29.2 (18.23) days | Duration of 2nd Success, Median [2]: 28.0 days | Duration of 3rd Episode, Mean (SD) [2]: 55.2 (27.44) days | Duration of 3rd Episode, Median [2]: 57.0 days | Duration of 3rd Success, Mean (SD) [2]: 28.0 (NE) days | Duration of 3rd Success, Median [2]: 28.0 days | Duration of 4th Episode, Mean (SD) [2]: 1.0 (NE) days | Duration of 4th Episode, Median [2]: 1.0 days | Duration of Last Episode, Mean (SD) [2]: 171.4 (97.39) days | Duration of Last Episode, Median [2]: 195.0 days | Duration of Last Success, Mean (SD) [2]: 63.8 (59.74) days | Duration of Last Success, Median [2]: 49.0 days | Total Duration of Treatment Episodes, Mean (SD) [2]: 186.1 (87.86) days | Total Duration of Treatment Episodes, Median [2]: 197.5 days | Total Duration of Treatment Success, Mean (SD) [2]: 77.4 (58.26) days | Total Duration of Treatment Success, Median [2]: 81.0 days | Average Duration of Episodes, Mean (SD) (Baseline PGA = 4, Overall): 187.5 (102.01) days | Average Duration of Episodes, Median (Baseline PGA = 4, Overall): 225.0 days | Average Duration of Treatment Success, Mean (SD) (Baseline PGA = 4, Overall): 104.5 (56.36) days | Average Duration of Treatment Success, Median (Baseline PGA = 4, Overall): 93.0 days | Duration of 1st Episode, Mean (SD) (Baseline PGA = 4, Overall): 187.4 (102.04) days | Duration of 1st Episode, Median (Baseline PGA = 4, Overall): 225.0 days | Duration of 1st Success, Mean (SD) (Baseline PGA = 4, Overall): 104.5 (56.36) days | Duration of 1st Success, Median (Baseline PGA = 4, Overall): 93.0 days | Duration of 2nd Episode, Mean (SD) (Baseline PGA = 4, Overall): 85.0 (NE) days | Duration of 2nd Episode, Median (Baseline PGA = 4, Overall): 85.0 days | Duration of Last Episode, Mean (SD) (Baseline PGA = 4, Overall): 187.5 (101.99) days | Duration of Last Episode, Median (Baseline PGA = 4, Overall): 225.0 days | Duration of Last Success, Mean (SD) (Baseline PGA = 4, Overall): 104.5 (56.36) days | Duration of Last Success, Median (Baseline PGA = 4, Overall): 93.0 days | Total Duration of Treatment Episodes, Mean (SD) (Baseline PGA = 4, Overall): 191.1 (99.63) days | Total Duration of Treatment Episodes, Median (Baseline PGA = 4, Overall): 225.0 days | Total Duration of Treatment Success, Mean (SD) (Baseline PGA = 4, Overall): 104.5 (56.36) days | Total Duration of Treatment Success, Median (Baseline PGA = 4, Overall): 93.0 days | Average Duration of Episodes, Mean (SD) [3]: 132.9 (100.39) days | Average Duration of Episodes, Median [3]: 113.0 days | Average Duration of Treatment Success, Mean (SD) [3]: 119.5 (79.90) days | Average Duration of Treatment Success, Median [3]: 119.5 days | Duration of 1st Episode, Mean (SD) [3]: 132.9 (100.39) days | Duration of 1st Episode, Median [3]: 113.0 days | Duration of 1st Success, Mean (SD) [3]: 119.5 (79.90) days | Duration of 1st Success, Median [3]: 119.5 days | Duration of Last Episode, Mean (SD) [3]: 132.9 (100.39) days | Duration of Last Episode, Median [3]: 113.0 days | Duration of Last Success, Mean (SD) [3]: 119.5 (79.90) days | Duration of Last Success, Median [3]: 119.5 days | Total Duration of Treatment Episodes, Mean (SD) [3]: 132.9(100.39) days | Total Duration of Treatment Episodes, Median [3]: 113.0 days | Total Duration of Treatment Success, Mean (SD) [3]: 119.5 (79.90) days | Total Duration of Treatment Success, Median [3]: 119.5 days | Average Duration of Episodes, Mean (SD) [4]: 211.3 (96.08) days | Average Duration of Episodes, Median [4]: 267.0 days | Average Duration of Treatment Success, Mean (SD) [4]: 89.5 (47.38) days | Average Duration of Treatment Success, Median [4]: 89.5 days | Duration of 1st Episode, Mean (SD) [4]: 211.3 (96.13) days | Duration of 1st Episode, Median [4]: 267.0 days | Duration of 1st Success, Mean (SD) [4]: 89.5 (47.38) days | Duration of 1st Success, Median [4]: 89.5 days | Duration of 2nd Episode, Mean (SD) [4]: 85.0 (NE) days | Duration of 2nd Episode, Median [4]: 85.0 days | Duration of Last Episode, Mean (SD) [4]: 211.4 (96.04) days | Duration of Last Episode, Median [4]: 267.0 days | Duration of Last Success, Mean (SD) [4]: 89.5 (47.38) days | Duration of Last Success, Median [4]: 89.5 days | Total Duration of Treatment Episodes, Mean (SD) [4]: 216.6 (90.82) days | Total Duration of Treatment Episodes, Median [4]: 267.0 days | Total Duration of Treatment Success, Mean (SD) [4]: 89.5 (47.38) days | Total Duration of Treatment Success, Median [4]: 89.5 days | PGA 0 - Clear (Baseline, Overall): 78 (10.3) n (%) | PGA 1 - Almost Clear (Baseline, Overall): 161 (21.2) n (%) | PGA 2 - Mild (Baseline, Overall): 248 (32.7) n (%)
